A word on the IC50: it is the midpoint of a concentration-inhibition curve. What is called melting point is the temperature, or range, at which the solid turns liquid.

In one data set the target is T1, CDK2/CycE (Homo sapiens, UniProt P24941).
T1 construct: GST; purchased Dr. Dieter Marmé, Klinik für Tumorbiologie, Freiburg (external academic supplier); host or cells: baculovirus-infected Sf9 insect cells
Briefly: CDK2/CycE kinase assay. The data set is classed as biochemical. The conditions noted are these: recombinant CDK2/CycE, histone IIIS substrate, 0.5 μm ATP. The method, then:
Recombinant CDK2- and CycE-GST-fusion proteins, purified from baculovirus-infected insect cells (Sf9), were obtained by Dr. Dieter Marmé, Klinik für Tumorbiologie [Clinic for Tumor Biology], Freiburg. Histone IIIS, which was used as a kinase substrate, was purchased by the Sigma Company.
CDK2/CycE (50 ng/measuring point) was incubated for 15 minutes at 22° C. in the presence of various concentrations of test substances (0 μm, as well as within the range of 0.01-100 μm) in assay buffer [50 mmol of tris/HCl pH 8.0, 10 mmol of MgCl2, 0.1 mmol of Na ortho-vanadate, 1.0 mmol of dithiothreitol, 0.5 μm of adenosine triphosphate (ATP), 10 μg/measuring point of histone IIIS, 0.2 μCi/measuring point of ^33P-gamma ATP, 0.05% NP40, 12.5% dimethyl sulfoxide]. The reaction was stopped by adding EDTA solution (250 mmol, pH 8.0, 14 μl/measuring point).
From each reaction batch, 10 μl was applied to P30 filter strips (Wallac Company), and non-incorporated ^33P-ATP was removed by subjecting the filter strips to three washing cycles for 10 minutes each in 0.5% phosphoric acid. After the filter strips were dried for one hour at 70° C., the filter strips were covered with scintillator strips (MeltiLex™ A, Wallac Company) and baked for one hour at 90° C. The amount of incorporated ^33p (substrate phosphorylation) was determined by scintillation measurement in a gamma-radiation measuring device (Wallac).

The next data set has as its system MCF-7. Put plainly: Proliferation assay, MCF-7. The data set is classed as cell-based, human. The conditions noted are these: MCF7, 96 h, 4 days incubation, crystal violet. The method, then: (§1) Cultivated human tumor cells (as indicated) were flattened out at a density of 5000 cells/measuring point in a 96-well multititer plate in 200 μl of the corresponding growth medium. After 24 hours, the cells of one plate (zero-point plate) were colored with crystal violet (see below), while the medium of the other plates was replaced by fresh culture medium (200 μl), to which the test substances were added in various concentrations (0 μm, as well as in the range of 0.01-30 μm; the final concentration of the solvent dimethyl sulfoxide was 0.5%. The cells were incubated for 4 days in the presence of test substances. The cell proliferation was determined by coloring the cells with crystal violet: the cells were fixed by adding 20 μl/measuring point of a 11% glutaric aldehyde solution for 15 minutes at room temperature. After three washing cycles of the fixed cells with water, the plates were dried at room temperature. The cells were colored by adding 100 μl/measuring point of a 0.1% crystal violet solution (pH was set at 3 by adding acetic acid). After three washing cycles of the colored cells with water, the plates were dried at room temperature. The dye was dissolved by adding 100 μl/measuring point of a 10% acetic acid solution. The extinction was determined by photometry at a wavelength of 595 nm. The change of cell growth, in percent, was calculated by standardization of the measured values to the extinction values of the zero-point plate (=0%) and the extinction of the untreated (0 μm) cells (=100%).

The next data set concerns H460. Put plainly: Proliferation assay, H460. As to conditions: Homo sapiens, NCI-H460, 96 h; comparison table; 4 days incubation, crystal violet. The data set is classed as cell-based. The method, then:
as §1, with “After three washing cycles of the colored cells with water, the plates were dried at room temperature. The dye was dissolved by adding 100 μl/measuring point of a 10% acetic acid solution.” left out

A further data set concerns HCT116. Briefly: Proliferation assay, HCT116. The data set is classed as cell-based. The conditions noted are these: Homo sapiens, HCT-116, 96 h; comparison table; 4 days incubation, crystal violet. The method, then: as §1, with “After three washing cycles of the colored cells with water, the plates were dried at room temperature. The dye was dissolved by adding 100 μl/measuring point of a 10% acetic acid solution.” left out

Another data set relates to DU145. Put plainly: Proliferation assay, DU145. The data set is classed as cell-based. As to conditions: Homo sapiens, DU-145, 96 h; comparison table; 4 days incubation, crystal violet. The method, then:
as §1, with “After three washing cycles of the colored cells with water, the plates were dried at room temperature. The dye was dissolved by adding 100 μl/measuring point of a 10% acetic acid solution.” left out

Consider `C[S+]([O-])c1ccc2c(c1)/C(=C1/Nc3ccccc3C1=O)C(=O)N2` (stereo not drawn) [Example 2.0, 5-Methylsulfinyl-indirubin], for which the melting point was 284 °C. Moreover, the IC50 at CDK2/CycE (comparison table) was found to be 0.08 µM. The compound also registered an IC50 with MCF-7 (Homo sapiens, comparison table) of 1.5 µM. Also, in the data set with H460, the IC50 stood at 4 µM. The compound also showed an IC50 with HCT116 of 2.5 µM. In the data set with DU145, this compound had an IC50 of 6 µM.
Regarding `CSc1ccc2c(c1)/C(=C1/Nc3ccc(NC(C)=O)cc3C1=O)C(=O)N2` [Example 5.0, 5-Methysulfanyl-5′-N-acetylindirubin], the results for the IC50 at CDK2/CycE and in the data set with MCF-7 (human tumor cells) were 0.11 µM and 5 µM, respectively.
`CSc1ccc2c(c1)/C(=C1/Nc3ccccc3C1=O)C(=O)N2` [Example 1.0, 5-Methylsulfanyl-indirubin] came in with a melting point above 210 °C. The IC50 on CDK2/CycE (comparison table) was determined as 0.3 µM. Also, 0.5 µM corresponded to half-maximal inhibition with MCF-7 (Homo sapiens, comparison table) (IC50).
In the case of `CSc1ccc2c(c1)/C(=C1/Nc3ccccc3/C1=N\O)C(=O)N2` [Example 4.0, 5-Methylsulfanyl-3′,-hydroyimino-indirubin], the melting point came out at 156 °C. In addition, the IC50 on CDK2/CycE (comparison table) is 0.02 µM. The IC50 in the data set on MCF-7 (Homo sapiens, comparison table) turned out to be 0.7 µM. In addition, 1 µM corresponded to half-maximal inhibition in the data set with H460 (IC50). Half-maximal inhibition in the data set on HCT116 (IC50) was put at 0.6 µM. In the data set with DU145, this compound returned an IC50 of 1 µM.
As to `CSc1ccc2c(c1)/C(=C1/Nc3ccc(OCc4ccccc4)cc3C1=O)C(=O)N2` [Example 5.1], on CDK2/CycE, the IC50 was determined as 5 µM.

For the origin of these results see US20020107404A1, “Sulfur-containing indirubin derivatives, their production and use” (Schering AG, priority 2000, published 2002).
